How the values were obtained:
[1] = molecular target: STING protein (Homo sapiens (Human), UniProt Q86WV6, H232R); assay: Cell based reporter assay of IRF activation (IRF-luciferase), THP1-dual-KI R232; settings: read-out: THP1-dual-KI R232_IRF(Luciferase)_Activity Maximum measured (%)
[2] = molecular target: mSTING-R232 (Mus musculus, UniProt Q3TBT3); assay: STING differential scanning fluorimetry (DSF) assay, mouse STING; settings: net shift in melting temperature
Method: A STING DSF assay was performed to determine protein thermostability shift in response to small molecule ligand binding. A STING thermostability shift assay based on differential scanning fluorimetry was used to measure (1) the net shift in melting temperature (ΔTm)between the apo and ligand-bound states of the STING protein and (2) the concentration of the thermal denaturation transition (EC50) as a surrogate measure of binding affinity (K). […] Protein in assay buffer was transferred to a 384 well plate and incubated with the hydrophobic fluorescent dye SYBR Orange. A temperature ramp was applied to the plate and the resulting dye fluorescence was plotted as a function of temperature. The first derivative of this function (dF/dT) was then used to extrapolate the melting temperature of the protein at various concentrations of compound and determine the thermal denaturation profile of a protein/compound complex.
• 1. Protein construct (affinity tag removal vs SUMO-fusion construct) • 2. Protein concentration • 3. Dye concentration • 4. Buffer • 5. Thermal ramp velocity • 6. DMSO tolerance • 7. Compound titration parameters • 8. […] 5 μM purified Target STING Protein • 3. 8 μM Sypro Orange Dye • 4. Buffer: 100 mM NaCl, 30 mM HEPES, pH 7.5 • 5. Thermal Ramp: 0.5° C./min • 6. <1% DMSO • 7. 11 point, 2 fold dilution, duplicate, 300 μM high concentrations • 8.

[3] = molecular target: mSTING (Mus musculus, UniProt Q3TBT3); assay: Radiometric filtration binding competition assay, mSTING
Method: A radiometric filtration binding competition assay was performed to quantify the binding affinity of compounds of the present application for the human or mouse STING protein, or associated HAQ human isoform. […] The resulting dose response was fit by non-linear regression to determine an IC50 value, from which a Ki value for each compound was extrapolated.
The resulting complexes were then filtered, dried, and scintillation fluid was added and the remaining radio signal was measured to determine the degree of compound ligand inhibition. This assay format was optimized for both the WT and HAQ isoforms of the human protein and the mouse orthologue protein.
Probe Concentration: Minimum concentration that achieved max assay window • g. Assay Format: Scintillation Proximity Bead or Filtration Binding Plate • h. […] Assay incubation times for successive incubation steps
WT-hSWAT: WT_FBA_HIS-SUMO-hSWAT IC50 (μM) (“WT”=Wild-type); HAQ-hSWAT: HAQ_FBA_HIS-SUMO-hSWAT IC50 (μM) (“HAQ”=human HAQ allele of STING protein); and WT-mSWAT: MOUSE_FBA_HIS-SUMO-mnSWAT IC50 (μM) which is the mouse isoform of STING protein.

[4] = molecular target: hSTING-WT (Homo sapiens (Human), UniProt Q86WV6, H232R); assay: Radiometric filtration binding competition assay, hSTING-WT
[5] = molecular target: hSTING-R232 (Homo sapiens (Human), UniProt Q86WV6, H232R); assay: STING differential scanning fluorimetry (DSF) assay, WT human STING; settings: WT (R232) human STING aa140-379, net shift in melting temperature
hSTING-R232, sequence (Q86WV6 140-379 H232R): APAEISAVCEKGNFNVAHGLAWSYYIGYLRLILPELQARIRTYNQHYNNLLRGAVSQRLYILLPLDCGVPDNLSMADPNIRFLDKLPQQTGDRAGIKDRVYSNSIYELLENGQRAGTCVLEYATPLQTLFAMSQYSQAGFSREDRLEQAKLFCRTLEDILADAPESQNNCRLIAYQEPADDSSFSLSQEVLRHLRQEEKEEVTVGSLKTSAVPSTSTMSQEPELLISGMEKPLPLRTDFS

hSTING-WT, sequence (Q86WV6 140-379 H232R): as above
STING protein, sequence (Q86WV6 whole entry H232R): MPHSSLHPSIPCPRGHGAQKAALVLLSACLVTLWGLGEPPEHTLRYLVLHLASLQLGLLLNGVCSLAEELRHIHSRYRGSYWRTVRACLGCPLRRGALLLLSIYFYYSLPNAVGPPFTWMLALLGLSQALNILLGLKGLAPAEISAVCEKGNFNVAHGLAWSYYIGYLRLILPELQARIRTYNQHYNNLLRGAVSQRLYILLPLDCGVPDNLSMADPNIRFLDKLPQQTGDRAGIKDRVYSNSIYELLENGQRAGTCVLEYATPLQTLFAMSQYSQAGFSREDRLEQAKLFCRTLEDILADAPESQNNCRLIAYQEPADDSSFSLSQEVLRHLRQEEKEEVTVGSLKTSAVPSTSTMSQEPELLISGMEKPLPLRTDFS

Row | SMILES | Emax [1] [%] | MOUSE DSF_6xHIS-SUMO Tm Shift (° C.) [2] | IC50 [3] [µM] | IC50 [4] [µM] | WT_DSF_hSWAT Tm Shift (° C.) [5]
1 | CSc1c(Cl)ccc2c(=O)c3ccc(Nc4cnccn4)cc3n(CC(=O)O)c12 [Compound 291] | < 5 | D (“D” > 15° C.) | < 20 | < 20 | D (“D” > 7° C.)
2 | CCOc1c(Cl)ccc2c(=O)c3ccc(CC)cc3n(CC(=O)O)c12 [Compound 306] | > 50 | D (“D” > 15° C.) | < 20 | < 20 | D (“D” > 7° C.)
3 | CCc1ccc2c(=O)c3ccc(Cl)c(OC)c3n(CC(=O)O)c2c1 [Compound 294] | > 50 | C (“C” = 5-15° C.) | 20 to 100 | 20 to 100 | D (“D” > 7° C.)
4 | COc1c(Cl)ccc2c(=O)c3ccc(NC4CCC4)cc3n(CC(=O)O)c12 [Compound 292] | > 50 | D (“D” > 15° C.) | < 20 | < 20 | D (“D” > 7° C.)
5 | O=C(O)Cn1c2cc(Nc3ccccc3)ccc2c(=O)c2ccc(Cl)c(Br)c21 [Compound 206] |  | D (“D” > 15° C.) | < 20 | 20 to 100 | D (“D” > 7° C.)
6 | CN(C)c1c(Cl)ccc2c(=O)c3ccc(C(C)(C)C)cc3n(CC(=O)O)c12 [Compound 324] | > 50 | D (“D” > 15° C.) | < 20 | < 20 | D (“D” > 7° C.)
7 | CCOc1c(Cl)ccc2c(=O)c3ccccc3n(CC(=O)O)c12 [Compound 244] | > 50 | C (“C” = 5-15° C.) | 20 to 100 | 100 to 300 | D (“D” > 7° C.)
8 | Cc1ccc2c(=O)c3ccc(Cl)c(-c4ccccc4)c3n(CC(=O)O)c2c1 [Compound 326] | > 50 | D (“D” > 15° C.) | < 20 | < 20 | D (“D” > 7° C.)
9 | CN(Cc1ccccc1)c1c(Cl)ccc2c(=O)c3ccccc3n(CC(=O)O)c12 [Compound 310] | 5 to 25 | A (“A” < 0° C.) | > 300 | 100 to 300 | A (“A” < 0° C.)
10 | COc1c(Cl)ccc2c(=O)c3ccccc3n(CC(=O)O)c12 [Compound 178] |  | C (“C” = 5-15° C.) | > 300 | > 300 | C (“C” = 2-7° C,)
11 | CCOc1c(Cl)ccc2c(=O)c3ccc(C(C)C)cc3n(CC(=O)O)c12 [Compound 288] | > 50 | D (“D” > 15° C.) | < 20 | < 20 | D (“D” > 7° C.)
12 | CSc1c(Cl)ccc2c(=O)c3ccc(Br)cc3n(CC(=O)O)c12 [Compound 309] | > 50 | C (“C” = 5-15° C.) | 20 to 100 | 20 to 100 | D (“D” > 7° C.)
13 | COc1c(Cl)ccc2c(=O)c3ccc(NC4CCCC4)cc3n(CC(=O)O)c12 [Compound 293] | > 50 | D (“D” > 15° C.) | < 20 | < 20 | D (“D” > 7° C.)
14 | COc1c(Cl)ccc2c(=O)c3ccc(SC)cc3n(CC(=O)O)c12 [Compound 234] | > 50 | D (“D” > 15° C.) | < 20 | 20 to 100 | D (“D” > 7° C.)
15 | COc1c(Cl)ccc2c(=O)c3ccc(Nc4ccc(F)cc4)cc3n(CC(=O)O)c12 [Compound 250] | > 50 | D (“D” > 15° C.) | < 20 | < 20 | D (“D” > 7° C.)
16 | O=C(O)Cn1c2ccccc2c(=O)c2ccc(Cl)c(OCCCO)c21 [Compound 329] | < 5 | C (“C” = 5-15° C.) | > 300 | > 300 | B (“B” = 0-2° C.)
17 | COc1cc2c(=O)c3ccc(Cl)c(OC)c3n(CC(=O)O)c2cc1C(C)C [Compound 318] | 5 to 25 | B (“B” = 0-5° C.) | > 300 | 100 to 300 | C (“C” = 2-7° C,)
18 | COc1c(Cl)ccc2c(=O)c3ccc(Nc4cccc5ccccc45)cc3n(CC(=O)O)c12 [Compound 297] | > 50 | D (“D” > 15° C.) | < 20 | < 20 | D (“D” > 7° C.)
19 | COc1c(Cl)ccc2c(=O)c3ccc(C(C)(C)C)cc3n(CC(=O)NS(C)(=O)=O)c12 [Compound 262] | > 50 | D (“D” > 15° C.) | < 20 | 20 to 100 | D (“D” > 7° C.)
20 | Cc1ccc2c(=O)c3ccc(Cl)c(OCC4CC4)c3n(CC(=O)O)c2c1 [Compound 325] | 25 to 50 | C (“C” = 5-15° C.) | 100 to 300 | 100 to 300 | C (“C” = 2-7° C,)
21 | O=C(O)Cn1c2ccccc2c(=O)c2ccc(Cl)c(OCCO)c21 [Compound 328] | < 5 | C (“C” = 5-15° C.) | > 300 | > 300 | B (“B” = 0-2° C.)
22 | O=C(O)Cn1c2cc(-c3cccc(Cl)n3)ccc2c(=O)c2ccc(Cl)c(Cl)c21 [Compound 162] | < 5 | C (“C” = 5-15° C.) |  | 100 to 300 | A (“A” < 0° C.)
23 | CC1(C)CCCC(c2ccc3c(=O)c4ccc(Cl)c(Cl)c4n(CC(=O)O)c3c2)C1 (stereo not drawn) [Compound 158] | < 5 | D (“D” > 15° C.) |  | < 20 | C (“C” = 2-7° C,)
24 | O=C(O)Cn1c2cc(-c3cccc(Cl)c3)ccc2c(=O)c2ccc(Cl)c(Cl)c21 [Compound 155] | < 5 | D (“D” > 15° C.) |  | 100 to 300 | C (“C” = 2-7° C,)
25 | Cc1cccc2c(=O)c3cccc(C)c3n(CC(=O)O)c12 [Compound 132] | < 5 | A (“A” < 0° C.) |  | 100 to 300 | A (“A” < 0° C.)
26 | Cc1ccc(-c2ccc3c(=O)c4ccc(Cl)c(Cl)c4n(CC(=O)O)c3c2)cc1 [Compound 154] | 5 to 25 | D (“D” > 15° C.) |  | 100 to 300 | C (“C” = 2-7° C,)
27 | O=C(O)Cn1c2cc(-c3ccc(F)cc3)ccc2c(=O)c2ccc(Cl)c(Cl)c21 [Compound 153] | 5 to 25 | D (“D” > 15° C.) |  | 20 to 100 | C (“C” = 2-7° C,)
28 | Cc1ccc(-c2ccc3c(=O)c4ccc(Cl)c(Cl)c4n(CC(=O)O)c3c2)cc1F [Compound 163] | 5 to 25 | D (“D” > 15° C.) |  | 20 to 100 | C (“C” = 2-7° C,)
29 | CC(C)c1ccc2c(=O)c3ccc(C#N)c(Cl)c3n(CC(=O)O)c2c1 [Compound 145] | < 5 | A (“A” < 0° C.) |  | 100 to 300 | A (“A” < 0° C.)
